Values quoted from earlier work as cited in US20030162237A1, “Methods of monitoring enzyme activity” (priority 2000, published 2003).
Like-named read-outs stand apart in the source and are kept apart here.

What was measured:
stem-loop IIB RNA = conditions: phosphorylated by PKC or HMK, versus unphosphorylated H6Rev

Row | Compound | expression of malignancy suppressor genes (human tumor cell lines) | binds more tightly to stem-loop IIB RNA than unphosphorylated H6Rev (stem-loop IIB RNA) | binds more tightly to stem-loop IIB RNA than unphosphorylated H6Rev (stem-loop IIB RNA; listed as H6Rev) [fold]
1 | Nc1ncn([C@H]2C[C@H](O)[C@@H](CO)O2)c(=O)n1 [5-aza-2′-deoxycytidine] | reactivate the expression of many of the malignancy suppressor genes |  | 
2 | P-H6Rev: HIV type-1 Rev protein H6Rev (accession number P04325) phosphorylated by PKC or HMK |  | ligand 7-fold more tightly than H6Rev. | 7
